In patent US20160160189A1, “Truncated Constructs of RIPK3 and Related Uses” (ST. JUDE CHILDREN'S RESEARCH HOSPITAL, priority 2013, published 2016):

Legend:
[1] = test system: NIH-3T3 cells stably expressing DD-RIPK3; assay: Cell death of DD-RIPK3 cells, IncuCyte bioimager; format: cell-based, murine; conditions: 1 μM Shield drug
From the text: Chimeric proteins composed of RIPK3 fused to the destabilization domain (DD)(31a) were created via recombinant PCR, to produce a fragment composed of an N-terminal FLAG tag followed by the destabilization domain, then full-length murine RIPK3 or RIPK3^K51A. These constructs were cloned into the pRRL lentiviral vector downstream of an MND promoter, and upstream of a T2A-GFP-T2A-Puromycin resistance cassette. Thus, cells transduced with these vectors produce FLAG-DD-RIPK3, GFP, and the puromycin resistance marker as separate proteins from a single mRNA, and both DD-RIPK3 and GFP carry a C terminal 2A epitope. These constructs were expressed in NIH-3T3 cells via standard helper12 dependent lentiviral transduction, and resulting cells were selected in 2 μg/ml puromycin. […]
(§1) Resulting images were analyzed using the software package supplied with the IncuCyte imager, which allows precise analysis of the number of Sytox Green or Yoyo-3 positive cells present in each image. For each experiment, a minimum of three separate wells were treated with each experimental condition, and a minimum of 4 image fields were assessed per well. Percent cell death was calculated by treating a minimum of three distinct wells in each experiment with 100 nM of the cell permeable fluorescent dye Syto Green (S7559), which allows quantification of the total number of cells present in each field. […]

[2] = test system: NIH-3T3 cells stably expressing RIPK3-1xFv; assay: TNF-induced necroptosis, IncuCyte imaging; format: cell-based, murine; conditions: recombinant TNF with zVAD; Nec1 30 μM, TNFR1-Fc 200 ng/ml
Description: Expression of RIPK3-1xFv sensitized these cells to necroptosis induced by the combination of TNF and a caspase inhibitor (zVAD) in a manner analogous to that observed in Jax cells, a murine fibroblast line that expresses endogenous RIPK3. See, FIG. 13C. […]
as §1

`CN1C(=O)C(Cc2c[nH]c3ccccc23)NC1=S` (stereo not drawn) [necrostatin-1, Necrostatin-1] was tested, and the “effect of Nec1 on cell death after RIPK1 siRNA-mediated knockdown” value ([1]; 30 μM Nec1, RIPK1 siRNA) was “eliminated”, the “effect on cell death triggered by RIPK3 accumulation” value ([1]; no exogenous TNF, TNFR-Fc 200 ng/ml, Nec1 30 μM) was “decreased cell death” and the “effect on TNF-induced necroptosis” value [2] was “blocks”.
